This passage reports EC50 results from publication doi:10.1101/2020.07.09.196246v1 (biorxiv, 2020).

Each structure is given as a SMILES string.

Assay [1] addresses T1, zebrafish α9α10 (1:2) nAChR (Danio rerio, UniProt A0A8M9PIT7+Q1LY90).
T1 sequence (A0A8M9PIT7 20-580): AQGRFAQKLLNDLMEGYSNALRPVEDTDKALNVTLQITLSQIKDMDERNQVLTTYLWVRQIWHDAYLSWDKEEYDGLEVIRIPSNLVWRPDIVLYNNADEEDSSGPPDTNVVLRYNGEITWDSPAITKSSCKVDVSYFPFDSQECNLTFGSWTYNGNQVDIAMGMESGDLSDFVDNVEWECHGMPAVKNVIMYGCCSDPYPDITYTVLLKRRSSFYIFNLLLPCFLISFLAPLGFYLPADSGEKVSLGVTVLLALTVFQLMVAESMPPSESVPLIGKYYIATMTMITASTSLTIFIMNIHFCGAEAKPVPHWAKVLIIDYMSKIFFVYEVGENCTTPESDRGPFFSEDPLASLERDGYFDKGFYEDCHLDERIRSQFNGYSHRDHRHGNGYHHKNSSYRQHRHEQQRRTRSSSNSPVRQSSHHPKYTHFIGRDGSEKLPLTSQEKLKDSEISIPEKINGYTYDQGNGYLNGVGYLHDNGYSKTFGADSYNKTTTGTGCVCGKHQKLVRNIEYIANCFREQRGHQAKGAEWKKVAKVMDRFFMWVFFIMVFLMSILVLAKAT
T1 sequence (Q1LY90 26-527): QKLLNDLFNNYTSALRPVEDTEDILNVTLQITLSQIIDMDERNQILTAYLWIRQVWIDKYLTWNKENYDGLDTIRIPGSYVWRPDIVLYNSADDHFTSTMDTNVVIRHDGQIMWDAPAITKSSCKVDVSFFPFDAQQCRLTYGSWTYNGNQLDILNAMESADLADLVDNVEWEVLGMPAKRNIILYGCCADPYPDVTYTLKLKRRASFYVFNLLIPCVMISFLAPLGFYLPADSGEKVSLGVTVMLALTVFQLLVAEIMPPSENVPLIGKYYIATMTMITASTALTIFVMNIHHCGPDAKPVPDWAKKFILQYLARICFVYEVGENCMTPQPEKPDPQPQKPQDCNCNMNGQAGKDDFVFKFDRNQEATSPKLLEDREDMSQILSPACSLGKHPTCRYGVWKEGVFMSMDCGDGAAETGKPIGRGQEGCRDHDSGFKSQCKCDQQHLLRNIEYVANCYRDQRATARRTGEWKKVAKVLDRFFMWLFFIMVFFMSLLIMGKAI
The assay is described as follows: two-electrode voltage clamp, peak inward current, Hill fit. The assay is classed as cell-based.

Assay [2] addresses T2, zebrafish α9 nAChR (homomeric) (Danio rerio, UniProt A0A8M9PIT7).
T2 sequence (A0A8M9PIT7 20-580): T1 sequence (A0A8M9PIT7 20-580)
The assay is described as above. Type of assay: cell-based.

With `CC(=O)OCC[N+](C)(C)C` [ACh, acetylcholine], the figures for the EC50 in assay [1] and in assay [2] were 437 µM and 11.7 µM, respectively.

The EC50 is the midpoint of the concentration-response curve.
